Tests used:
Type in all cases: in vivo, rat
[1] = tested on: conscious Sprague-Dawley rats; assay: Acute cardiovascular and renal excretory studies with ICV or IV norBNI pretreatment (Example 4); conditions: for Urine osmolality / Urine potassium concentration [K+] / Urine sodium concentration [Na+]: total 90-min urine
Experimental: Male Sprague-Dawley rats (Envigo Labs, Indianapolis, IN) were individually housed, allowed tap water and standard rodent diet ad libitum, and kept under a 12-hour light-dark cycle. Rats used in these experiments weighed between 300 and 350 grams and were randomly assigned to experimental groups. All procedures were conducted in accordance with the National Institutes of Health guidelines for the care and use of animals and approved by the Louisiana State University Health Sciences Center Institutional Animal Care and Use Committee.
Aseptic technique was adhered to for all surgeries and detailed surgical methods were followed as previously described.^14 Briefly, 3-5 days before experimentation, rats requiring central ventricle access for administration of drug/vehicle into the brain were anesthetized with ketamine and xylazine and a stainless-steel cannula was stereotaxically implanted into the right lateral cerebral ventricle.^14
On the morning of the experiment, rats were anesthetized and maintained with inhaled 2% isoflurane, and polyethylene catheters were surgically placed into the left femoral artery, left femoral vein, and urinary bladder.^15.16 Following surgery, rats were placed in an elevated restrainer for recovery and collection of urine from an indwelling bladder catheter.^15 After completion of experimental protocols, rats were anesthetized with isoflurane and decapitated.
During stabilization of cardiovascular and renal excretory parameters, rats received an isotonic saline infusion (55 μl/min), which lasted throughout the duration of the experiment. To record mean arterial pressure (MAP) and heart rate (HR), arterial catheters were connected to a pressure transducer (MLT0670, ADInstruments, Sydney, Australia), which was connected to Powerlab 8/30 (ADInstruments) and visualized using LabChart software (v8.1.5; ADInstruments). After one hour of recovery from surgery, rats were pretreated with the KOR antagonist norBNI or isotonic saline vehicle through either an intracerebroventricular (ICV) catheter or intravenous (IV) catheter. […] Next, drug or vehicle (isotonic saline) was injected into the femoral vein and urine samples were collected every 10 minutes during a 90-minute experimental period. The following drug concentrations were used: nalfurafine 5 μg/kg, difelikefalin 10 μg/kg, norBNI 30 mg/kg (IV), norBNI 1 μg/5 μL (ICV). All groups are n=6. Urine sodium and potassium were measured using a flame photometer (model 943; Instrumentation Laboratories, Lexington, MA). Urine volume was measured gravimetrically, and urine osmolality was measured using a vapor pressure osmometer (model 5600; WESCOR, Logan, UT).
All results are expressed as mean±SEM. For determining statistically different changes at time points within a treatment group, means were compared to the control value using 2-way ANOVA with repeated measures and a post hoc Dunnett test following confirmation of a significant F value. For statistically different changes at individual time points between treatment groups, mean values were compared using 2-way ANOVA with repeated measures and a post hoc Sidak test following confirmation of a significant/value. For means between groups for total urine output, urine sodium concentration, urine potassium concentration, and urine osmolality, a Student/test was used. Statistical significance was characterized as P<0.05 and statistics were performed on Prism 7.05 software (GraphPad Software, Inc, San Diego, CA).

[2] = tested on: conscious Sprague-Dawley rats; assay: Metabolic cage renal excretory studies, oral gavage (Example 3); conditions: oral gavage, mean±SEM; for Potassium concentration [K+] in cumulative urine / Sodium concentration [Na+] in cumulative urine: cumulative 5-hour urine, same doses; for Total urine output: cumulative urine of 5-hour protocol, nalfurafine 150 μg kg−1, furosemide 50 mg kg−1, HCTZ 5 mg kg−1, amiloride 5 mg kg−1, n=6
Experimental: (§1) Animals: Male Sprague-Dawley (SD) rats (Envigo Labs, Indianapolis, IN), 300-350 g, were individually housed under a 12 h light-dark cycle and allowed tap water and standard rodent diet ad libitum. Rats were randomly assigned to experimental groups for all acute and subacute studies. All procedures were approved by the Louisiana State University Health Sciences Center Institutional Animal Care and Use Committee and conducted in accordance with the National Institutes of Health guidelines for the care and use of animals.
Metabolic Cage Renal Excretory Studies: Rats were placed in metabolic cages (model 18cv, Fenco, Cataumet, MA) for 2 hours to allow for acclimation and voiding of residual urine. Following the acclimation period, rats were volume loaded with 20 cc kg^−1 drug or vehicle (isotonic saline) via oral gavage. Urines were collected each hour over a 5-hour period. Following completion of the study rats were returned to their home cages. […] These points are marked on the figures with number of measurements in parentheses.
(§2) Experimental Design and Analysis: All results are expressed as mean±SEM. […] Means between groups for total urine output, Na^+ concentration, K^+ concentration, and urine osmolality were compared using a Student's t-test. Statistical significance was characterized as P<0.05. Statistics were carried out using Prism 7.05 software (GraphPad Software, Inc., San Diego, CA) and IBM SPSS Statistics (IBM, Armonk, NY).

[3] = tested on: conscious Sprague-Dawley rats; assay: Acute cardiovascular and renal excretory studies, i.v. bolus (Example 3); conditions: for Effect on heart rate (HR) / Effect on MAP / Potassium concentration [K+] in cumulative urine / Sodium concentration [Na+] in cumulative urine / Urine osmolality / Total urine output: i.v. bolus; for Effect on heart rate (HR) / Effect on MAP: 90-min protocol; for Effect on MAP: diuretic alone; for Potassium concentration [K+] in cumulative urine / Sodium concentration [Na+] in cumulative urine / Urine osmolality: cumulative 90-min urine, same doses; for Potassium concentration [K+] in cumulative urine / Sodium concentration [Na+] in cumulative urine / Urine osmolality / Total urine output: mean±SEM; for Total urine output: cumulative urine of 90-min protocol, nalfurafine 5 μg kg−1, furosemide 7.5 mg kg−1, HCTZ 2.5 mg kg−1, amiloride 2 mg kg−1, n=6
Experimental: as §1
Surgical Procedures: Aseptic technique was followed for all surgical procedures. On the morning of the experiment, rats were anesthetized with and maintained under inhaled 2% isoflurane, and polyethylene catheters (PE50; BD Diagnostics, Sparks, MD) were surgically inserted into the left femoral vein and left femoral artery for the infusion of saline and/or drug administration and the recording of arterial blood pressure, respectively. Subsequently, a suprapubic incision was made and a flanged polyethylene catheter (PE240; BD Diagnostics, Sparks, MD) was inserted into the bladder, exteriorized, and sutured to surrounding muscle and skin. Rats were then placed in an elevated restrainer (Krowicki & Kapusta, 2011) to recover from surgery and allow collection of urine. When acute experimental protocols were completed, rats were anesthetized via isoflurane and decapitated.
Acute Cardiovascular and Renal Excretory Studies: Following surgery, rats received an i.v. infusion of isotonic saline at 55 μL min^−1 throughout the duration of the experiment and were allowed 4-6 hours to recover from anesthesia. Arterial catheters were connected to a pressure transducer (MLT0670, ADInstruments, Sydney, Australia), which was connected to Powerlab 8/30 (ADInstruments) for recording of pulsatile and mean arterial blood pressure (MAP) and heart rate (HR). Blood pressure and HR were visualized using LabChart software (v8.1.5; ADInstruments). […] Following this control period, drug or vehicle (isotonic saline) was injected into the femoral vein catheter at a volume of 2 cc kg^−1, and urines were collected in 10 minute periods for a span of 90 minutes. […] All groups are n=6. Urine volume was measured gravimetrically, urine sodium and potassium concentrations were measured using flame photometry (model 943; Instrumentation Laboratories, Lexington, MA), and urine osmolality was measured using a vapor pressure osmometer (model 5600; WESCOR, Logan, UT).
as §2

[4] = tested on: Sprague-Dawley rats placed on a low-salt diet; assay: Reversal of furosemide diuretic resistance by difelikefalin in rats on a low sodium diet (FIG. 16); conditions: difelikefalin 20 μg/kg IP added on days 13-17, low sodium diet
Experimental: Male Sprague-Dawley rats were placed in individual metabolic cages in a room with 12-hour automatic light on/off control and allowed tap water. For these studies, rats were placed on a low-salt diet (0.1% NaCl) for one week prior to and throughout the experimental protocol. […] For the first two (2) days (control period), rats were administered vehicle (5% NaOH; 1 M PBS, IP) in the morning (9:00 am) and urine was then collected for 5-hours.

[5] = tested on: Sprague-Dawley rats; assay: Prevention of diuretic resistance to once daily furosemide by difelikefalin, 24-hour urine (FIG. 14); conditions: difelikefalin 20 μg/kg IP added to furosemide 10 mg/kg once daily
Experimental: Male Sprague-Dawley rats were placed in individual metabolic cages in a room with 12-hour automatic light on/off control and allowed tap water and rodent chow ad libitum. Over the next two (2) days (control period), rats were administered vehicle (5% NaOH; 1 M PBS, IP) in the morning (9:00 am) and urine was then collected for 24-hours.

[6] = ICV norBNI (1 μg/5 μL) pretreatment
[7] = IV norBNI (30 mg/kg) pretreatment
[8] = difelikefalin 10 μg/kg IV, no pretreatment

Oc1ccc2c3c1O[C@H]1c4[nH]c5c(c4C[C@@]4(O)[C@@H](C2)N(CC2CC2)CC[C@]314)C[C@@]1(O)[C@H]2Cc3ccc(O)c4c3[C@@]1(CCN2CC1CC1)[C@H]5O4 [norBNI, norbinaltorphimine]
Effect of norBNI pretreatment on the diuresis ([1]; norBNI 1 μg/5 μL ICV before difelikefalin 10 μg/kg IV): significantly attenuated the peak increase and duration of the difelikefalin-induced diuresis | Effect of norBNI pretreatment on the diuresis ([1]; norBNI 1 μg/5 μL ICV before nalfurafine 5 μg/kg IV): markedly attenuated | Effect of norBNI pretreatment on the diuresis ([1]; norBNI 30 mg/kg IV before difelikefalin 10 μg/kg IV): completely blocked the diuresis | Effect of norBNI pretreatment on the diuresis ([1]; norBNI 30 mg/kg IV before nalfurafine 5 μg/kg IV): nearly abolished

NS(=O)(=O)c1cc2c(cc1Cl)NCNS2(=O)=O [HCTZ, hydrochlorothiazide]
Potassium concentration [K+] in cumulative urine [2]: 26.50±1.91 μeq ml^−1 | Sodium concentration [Na+] in cumulative urine [2]: 119.70±3.04 μeq ml^−1 | Total urine output [2]: 14.55 ± 0.57 mL | Duration of the increase in urine flow rate above control ([3]; after i.v. bolus): returned to baseline levels by 50-min | Effect on heart rate (HR) [3]: did not produce any changes in MAP or HR | Effect on MAP [3]: did not produce any changes in MAP or HR | Potassium concentration [K+] in cumulative urine [3]: 14.76±3.12 μeq ml^−1 | Sodium concentration [Na+] in cumulative urine [3]: 155.6±8.04 μeq ml^−1 | Urine osmolality [3]: 439.3 ± 15.94 mmol/kg | Total urine output [3]: 9.22 ± 0.50 mL

N=C(N)NC(=O)c1nc(Cl)c(N)nc1N [amiloride]
Potassium concentration [K+] in cumulative urine [2]: 4.02±0.54 μeq ml^−1 | Sodium concentration [Na+] in cumulative urine [2]: 130.9±5.32 μeq ml^−1 | Total urine output [2]: 8.61 ± 0.63 mL | Duration of the increase in urine flow rate above control ([3]; after i.v. bolus): 30 min | Time of peak diuresis (urine flow rate) ([3]; after i.v. bolus): 10 min | Effect on heart rate (HR) [3]: Heart rate did not change | Effect on MAP [3]: minimal effects on MAP | Potassium concentration [K+] in cumulative urine [3]: 0.85±0.19 μeq ml^−1 | Sodium concentration [Na+] in cumulative urine [3]: 137.60±6.01 μeq ml^−1 | Urine osmolality [3]: 398.3 ± 18.05 mmol/kg | Total urine output [3]: 8.42 ± 0.40 mL

Difelikefalin
Effect on HR [1, 6]: No changes in HR | Effect on MAP [1, 6]: no significant change in MAP | Total urine output ([1]; ICV norBNI (1 μg/5 μL) pretreatment, difelikefalin 10 μg/kg or nalfurafine 5 μg/kg IV, 90 min): 5.49 ± 0.75 mL | Urine osmolality [1, 6]: 280 ± 26.99 mmol/kg | Urine potassium concentration [K+] [1, 6]: 13.63±3.05 μeq/mL | Urine sodium concentration [Na+] [1, 6]: 47.92±8.30 μeq/mL | Total urine output ([1]; ICV vehicle (5 μL) pretreatment, difelikefalin 10 μg/kg or nalfurafine 5 μg/kg IV, 90 min): 9.64 ± 0.52 mL | Effect on HR ([1]; ICV vehicle pretreatment): No changes in HR | MAP peak Δ ([1]; ICV vehicle pretreatment, peak at 60 min (difelikefalin), 50 min (nalfurafine)): −4 mmHg | Urine osmolality ([1]; ICV vehicle pretreatment): 170.7 ± 12.04 mmol/kg | Urine potassium concentration [K+] ([1]; ICV vehicle pretreatment): 8.16±1.81 μeq/mL | Urine sodium concentration [Na+] ([1]; ICV vehicle pretreatment): 45.24±6.67 μeq/mL | Effect on HR [1, 7]: slight but statistically significant increases in HR | MAP peak Δ ([1]; IV norBNI (30 mg/kg) pretreatment, 80-minute peak for difelikefalin): −4.5 mmHg | Total urine output ([1]; IV norBNI (30 mg/kg) pretreatment, difelikefalin 10 μg/kg or nalfurafine 5 μg/kg IV, 90 min): 4.44 ± 0.28 mL | Urine osmolality [1, 7]: 515 ± 35.8 mmol/kg | Urine potassium concentration [K+] [1, 7]: 27.78±5.35 μeq/mL | Urine sodium concentration [Na+] [1, 7]: 140.4±10.7 μeq/mL | Total urine output ([1]; IV vehicle (2 cc/kg) pretreatment, difelikefalin 10 μg/kg or nalfurafine 5 μg/kg IV, 90 min): 9.49 ± 0.30 mL | Effect on HR ([1]; IV vehicle pretreatment): slight but statistically significant increases in HR | MAP peak Δ ([1]; IV vehicle pretreatment, peak at 70 min (difelikefalin), 60 min (nalfurafine)): −11 mmHg | Urine osmolality ([1]; IV vehicle pretreatment): 161.2 ± 9.98 mmol/kg | Urine potassium concentration [K+] ([1]; IV vehicle pretreatment): 5.66±1.04 μeq/mL | Urine sodium concentration [Na+] ([1]; IV vehicle pretreatment): 38.93±4.01 μeq/mL | Duration of the increase in urine flow rate [1, 8]: 50 min | Effect on HR [1, 8]: Neither IV saline nor difelikefalin altered HR | Time of peak diuresis [1, 8]: 30 min | Total urine output ([1]; difelikefalin 10 μg/kg IV, no pretreatment (FIG. 9B), 90-minute period, mean±SEM, n=6): 10.62 ± 0.47 mL | Urine osmolality [1, 8]: 169.70 ± 13.89 mmol/kg | Urine potassium concentration [K+] [1, 8]: 5.53±0.63 μeq/mL | Urine sodium concentration [Na+] [1, 8]: 32.22±6.48 μeq/mL | Effect on established diuretic resistance to furosemide [4]: rescues the established diuretic resistance | Effect on diuretic resistance to furosemide [5]: prevents the diuretic resistance
